Test results published in PubChem BioAssay AID1259407 (Chemical Carcinogenesis Research Information System (CCRIS), 2018).
Active and inactive are the calls of the source. How the calls were made is not given here.

Tested on: CCRIS mutagenicity, Ames/micronucleus/aberration tests
Assay: CCRIS mutagenicity studies
[1] = Test System: AMES SALMONELLA TYPHIMURIUM, Strain/Indicator: TA98, Metabolic Activation: NONE, Method: STANDARD PLATE
[2] = Test System: AMES SALMONELLA TYPHIMURIUM, Strain/Indicator: TA100, Metabolic Activation: NONE, Method: STANDARD PLATE
[3] = Test System: AMES SALMONELLA TYPHIMURIUM, Strain/Indicator: TA98, Metabolic Activation: NONE, Method: PREINCUBATION
[4] = Test System: AMES SALMONELLA TYPHIMURIUM, Strain/Indicator: TA100, Metabolic Activation: NONE, Method: PREINCUBATION

CC(=O)OCC(=O)NCCCOc1cccc(CN2CCCCC2)c1
mutagenic call (Test System: AMES SALMONELLA TYPHIMURIUM, Strain/Indicator: TA98, Metabolic Activation: NONE): inactive; negative
mutagenic call (Test System: AMES SALMONELLA TYPHIMURIUM, Strain/Indicator: TA98, Metabolic Activation: RAT, LIVER, S-9, PHENOBARBITAL AND 5,6-BENZOFLAVONE): inactive; negative
mutagenic call (Test System: AMES SALMONELLA TYPHIMURIUM, Strain/Indicator: TA100, Metabolic Activation: NONE): inactive; negative
mutagenic call (Test System: AMES SALMONELLA TYPHIMURIUM, Strain/Indicator: TA100, Metabolic Activation: RAT, LIVER, S-9, PHENOBARBITAL AND 5,6-BENZOFLAVONE): inactive; negative
mutagenic call (Test System: AMES SALMONELLA TYPHIMURIUM, Strain/Indicator: TA1535, Metabolic Activation: NONE): inactive; negative
mutagenic call (Test System: AMES SALMONELLA TYPHIMURIUM, Strain/Indicator: TA1535, Metabolic Activation: RAT, LIVER, S-9, PHENOBARBITAL AND 5,6-BENZOFLAVONE): inactive; negative
mutagenic call (Test System: AMES SALMONELLA TYPHIMURIUM, Strain/Indicator: TA1537, Metabolic Activation: NONE): inactive; negative
mutagenic call (Test System: AMES SALMONELLA TYPHIMURIUM, Strain/Indicator: TA1537, Metabolic Activation: RAT, LIVER, S-9, PHENOBARBITAL AND 5,6-BENZOFLAVONE): inactive; negative
mutagenic call (Test System: AMES SALMONELLA TYPHIMURIUM, Strain/Indicator: TA1538, Metabolic Activation: NONE): inactive; negative
mutagenic call (Test System: AMES SALMONELLA TYPHIMURIUM, Strain/Indicator: TA1538, Metabolic Activation: RAT, LIVER, S-9, PHENOBARBITAL AND 5,6-BENZOFLAVONE): inactive; negative
mutagenic call (Test System: E. COLI, Strain/Indicator: WP2 UVRA, Metabolic Activation: NONE): inactive; negative
mutagenic call (Test System: E. COLI, Strain/Indicator: WP2 UVRA, Metabolic Activation: RAT, LIVER, S-9, PHENOBARBITAL AND 5,6-BENZOFLAVONE): inactive; negative

C=Cc1ccc(S(=O)(=O)O)cc1
mutagenic call (Test System: Ames Salmonella typhimurium, Strain/Indicator: TA98, Metabolic Activation: None, Method: Preincubation): inactive; negative
mutagenic call (Test System: Ames Salmonella typhimurium, Strain/Indicator: TA98, Metabolic Activation: Rat, Liver, S-9, Phenobarbital and 5,6-benzoflavone, Method: Preincubation): inactive; negative
mutagenic call (Test System: Ames Salmonella typhimurium, Strain/Indicator: TA100, Metabolic Activation: None, Method: Preincubation): inactive; negative
mutagenic call (Test System: Ames Salmonella typhimurium, Strain/Indicator: TA100, Metabolic Activation: Rat, Liver, S-9, Phenobarbital and 5,6-benzoflavone, Method: Preincubation): inactive; negative
mutagenic call (Test System: Ames Salmonella typhimurium, Strain/Indicator: TA1535, Metabolic Activation: None, Method: Preincubation): inactive; negative
mutagenic call (Test System: Ames Salmonella typhimurium, Strain/Indicator: TA1535, Metabolic Activation: Rat, Liver, S-9, Phenobarbital and 5,6-benzoflavone, Method: Preincubation): inactive; negative
mutagenic call (Test System: Ames Salmonella typhimurium, Strain/Indicator: TA1537, Metabolic Activation: None, Method: Preincubation): inactive; negative
mutagenic call (Test System: Ames Salmonella typhimurium, Strain/Indicator: TA1537, Metabolic Activation: Rat, Liver, S-9, Phenobarbital and 5,6-benzoflavone, Method: Preincubation): inactive; negative
mutagenic call (Test System: E. coli, Strain/Indicator: WP2uvrA/pKM101, Metabolic Activation: None, Method: Preincubation): inactive; negative
mutagenic call (Test System: E. coli, Strain/Indicator: WP2uvrA/pKM101, Metabolic Activation: Rat, Liver, S-9, Phenobarbital and 5,6-benzoflavone, Method: Preincubation): inactive; negative

CC1c2cc(F)ccc2-c2ccc(F)cc21
mutagenic call (Test System: AMES SALMONELLA TYPHIMURIUM, Strain/Indicator: TA100, Metabolic Activation: RAT, LIVER, S-9, AROCLOR 1254, Method: STANDARD PLATE): active; positive

COc1ccc2c(c1OC)c(=O)n(C)c1c3cc4c(cc3ccc21)OCO4
mutagenic call (Test System: AMES SALMONELLA TYPHIMURIUM, Strain/Indicator: TA100, Metabolic Activation: RAT, LIVER, S-9, PHENOBARBITAL AND BETA-NAPHTHOFLAVONE, Method: PREINCUBATION): active; positive

NC(=O)CC[C@H](N)C(=O)O
mutagenic call (End Point: In vitro chromosomal aberrations, Test System: Chinese hamster ovary (CHO) cells, Metabolic Activation: None): inactive; negative; glutamine, alone or in combination with vitamin c, reduced effect of d
mutagenic call (End Point: In vivo chromosomal aberrations, Test System: Bone marrow cells, Species: Rat, Strain/Sex: Wistar/Male and female, Route: Oral): inactive; negative; glutamine, alone or with vitamin c, reduced effect of doxorubicin
mutagenic call (End Point: In vivo micronucleus, Test System: Peripheral blood cells, Species: Mouse, Strain/Sex: Swiss/Male, Route: Oral): inactive; negative

CC(=O)OCc1c2ccccc2c2ccc3cccc4ccc1c2c43
mutagenic call [1]: active; positive
mutagenic call [2]: active; positive

Clc1nncc2ccncc12
mutagenic call [3]: inactive; negative
mutagenic call (Test System: AMES SALMONELLA TYPHIMURIUM, Strain/Indicator: TA98, Metabolic Activation: RAT, LIVER, S-9, PCB, Method: PREINCUBATION): inactive; negative
mutagenic call [4]: inactive; negative
mutagenic call (Test System: AMES SALMONELLA TYPHIMURIUM, Strain/Indicator: TA100, Metabolic Activation: RAT, LIVER, S-9, PCB, Method: PREINCUBATION): inactive; negative

CC(COc1ccccc1)N(CCCl)Cc1ccccc1 (stereo not drawn)
mutagenic call (Test System: AMES SALMONELLA TYPHIMURIUM, Strain/Indicator: TA97, Metabolic Activation: HAMSTER, LIVER, S-9, AROCLOR 1254 (10%), Method: PREINCUBATION): active; positive
mutagenic call (Test System: AMES SALMONELLA TYPHIMURIUM, Strain/Indicator: TA97, Metabolic Activation: NONE, Method: PREINCUBATION): active; positive
mutagenic call (Test System: AMES SALMONELLA TYPHIMURIUM, Strain/Indicator: TA97, Metabolic Activation: RAT, LIVER, S-9, AROCLOR 1254 (10%), Method: PREINCUBATION): active; positive
mutagenic call (Test System: AMES SALMONELLA TYPHIMURIUM, Strain/Indicator: TA98, Metabolic Activation: HAMSTER, LIVER, S-9, AROCLOR 1254 (10%), Method: PREINCUBATION): active; positive
mutagenic call [3]: active; positive
mutagenic call (Test System: AMES SALMONELLA TYPHIMURIUM, Strain/Indicator: TA98, Metabolic Activation: RAT, LIVER, S-9, AROCLOR 1254 (10%), Method: PREINCUBATION): active; positive
mutagenic call (Test System: AMES SALMONELLA TYPHIMURIUM, Strain/Indicator: TA100, Metabolic Activation: HAMSTER, LIVER, S-9, AROCLOR 1254 (10%), Method: PREINCUBATION): active; positive
mutagenic call [4]: active; positive
mutagenic call (Test System: AMES SALMONELLA TYPHIMURIUM, Strain/Indicator: TA100, Metabolic Activation: RAT, LIVER, S-9, AROCLOR 1254 (10%), Method: PREINCUBATION): active; positive
mutagenic call (Test System: AMES SALMONELLA TYPHIMURIUM, Strain/Indicator: TA1535, Metabolic Activation: HAMSTER, LIVER, S-9, AROCLOR 1254 (10%), Method: PREINCUBATION): active; positive
mutagenic call (Test System: AMES SALMONELLA TYPHIMURIUM, Strain/Indicator: TA1535, Metabolic Activation: NONE, Method: PREINCUBATION): inactive; negative
mutagenic call (Test System: AMES SALMONELLA TYPHIMURIUM, Strain/Indicator: TA1535, Metabolic Activation: RAT, LIVER, S-9, AROCLOR 1254 (10%), Method: PREINCUBATION): active; positive

Cc1nn(C)c(Oc2ccccc2)c1/C=N/OCc1ccc(C(=O)OC(C)(C)C)cc1
mutagenic call (End Point: In vitro chromosomal aberrations, Test System: Human lymphocytes/Male, Metabolic Activation: None): inactive; negative
mutagenic call (End Point: In vitro chromosomal aberrations, Test System: Human lymphocytes/Male, Metabolic Activation: Rat, Liver, S-9): inactive; negative
mutagenic call (End Point: In vivol micronucleus, Species: Mouse, Strain/Sex: CD-1, Route: Oral): inactive; negative

Cc1c([N+](=O)[O-])ccc2ccccc12
mutagenic call [3]: active; positive

O=[N+]([O-])c1cccc(CO/N=C/c2nc3cc([N+](=O)[O-])ccc3n2Cc2ccc(Cl)cc2)c1
mutagenic call [1]: inactive; negative
mutagenic call (Test System: AMES SALMONELLA TYPHIMURIUM, Strain/Indicator: TA98, Metabolic Activation: RAT, LIVER, S-9, PHENOBARBITAL AND BETA-NAPHTHOFLAVONE, Method: STANDARD PLATE): inactive; negative
mutagenic call [2]: inactive; negative
mutagenic call (Test System: AMES SALMONELLA TYPHIMURIUM, Strain/Indicator: TA100, Metabolic Activation: RAT, LIVER, S-9, PHENOBARBITAL AND BETA-NAPHTHOFLAVONE, Method: STANDARD PLATE): inactive; negative
